From patent US9896418B2, “Aryl ethers and uses thereof” (Peloton Therapeutics, Inc., priority 2013, dated 2018)

These compounds were tested on HIF-2α HIS TAG-PASB Domain (assay: HIF-2α Scintillation Proximity Assay (SPA)).
Assay type: binding
Experimental: The percent inhibition was determined and IC50 values were calculated using the Dotmatics system based on the following equation: % inhibition=[(high control−sample)/(high control−low control)]×100.

Row | Structure (SMILES) | IC50
1 | N#Cc1cc(F)cc(Oc2ccc(S(=O)(=O)C(F)(F)F)c3c2[C@@H](N)C[C@H]3O)c1 (relative stereo) [Compound 279, 3-((cis-3-amino-1-hydroxy-7-((trifluoromethyl)sulfonyl)-2,3-dihydro-1H-inden-4-yl)oxy)-5-fluorobenzonitrile] | 5100 nM
2 | CS(=O)(=NC#N)c1ccc(Oc2cncc(C#N)c2)c2c1[C@H](O)C(F)(F)[C@@H]2F (single isomer, unassigned) [Compound 319] | 14 nM
3 | CS(=O)(=NC#N)c1ccc(Oc2cncc(C#N)c2)c2c1[C@H](O)C(F)(F)[C@@H]2F (single isomer, unassigned) [Compound 321] | 32 nM
4 | N#Cc1cc(F)cc(Oc2ccc(S(=N)(=O)CF)c3c2CC(F)(F)[C@H]3O)c1 (single isomer, unassigned) [Example 274] | 94 nM
5 | N#CN=S(=O)(CF)c1ccc(Oc2cc(F)cc(C#N)c2)c2c1[C@H](O)C(F)(F)C2 (single isomer, unassigned) [Example 285] | 71 nM
6 | CS(=O)(=NC#N)c1ccc(Oc2cc(F)cc(C#N)c2)c2c1[C@H](O)C(F)(F)[C@@H]2F (single isomer, unassigned) [Example 316] | < 5 nM
7 | O=S(=O)(c1ccc(Oc2cc(F)cc(F)c2)c2c1[C@H](O)CC2)C(F)F [Compound 2, (R)-7-((Difluoromethyl)sulfonyl)-4-(3,5-difluorophenoxy)-2,3-dihydro-1H-inden-1-ol] | < 5 nM
8 | O=S(=O)(c1ccc(Oc2cncc(Cl)c2)c2c1[C@H](O)CC2)C(F)F [Compound 3, (R)-4-((5-chloropyridin-3-yl)oxy)-7-((difluoromethyl)sulfonyl)-2,3-dihydro-1H-inden-1-ol] | 340 nM
9 | N#Cc1cncc(Oc2ccc(S(=O)(=O)C(F)F)c3c2CC[C@H]3O)c1 [Compound 4, (R)-5-((7-((Difluoromethyl)sulfonyl)-1-hydroxy-2,3-dihydro-1H-inden-4-yl)oxy)nicotinonitrile] | 3300 nM
10 | O=S(=O)(c1ccc(Oc2cncc(F)c2)c2c1[C@H](O)CC2)C(F)F [Compound 5, (R)-7-((difluoromethyl)sulfonyl)-4-((5-fluoropyridin-3-yl)oxy)-2,3-dihydro-1H-inden-1-ol] | 900 nM
11 | O=S(=O)(c1ccc(Oc2cc(F)cc(F)c2)c2c1C(O)C(F)(F)C2)C(F)F (stereo not shown) [Compound 9, 7-(difluoromethylsulfonyl)-4-(3,5-difluorophenoxy)-2,2-difluoro-indan-1-ol] | < 5 nM
12 | CC1(O)c2c(S(=O)(=O)C(F)F)ccc(Oc3cc(F)cc(C#N)c3)c2CC1(F)F (stereo not shown) [Compound 13, 3-[7-(difluoromethylsulfonyl)-2,2-difluoro-1-hydroxy-1-methyl-indan-4-yl]oxy-5-fluoro-benzonitrile] | 6600 nM
13 | N#CCS(=O)(=O)c1ccc(Oc2cc(F)cc(F)c2)c2c1C(O)CC2 (stereo not shown) [Compound 14, 2-[7-(3,5-difluorophenoxy)-3-hydroxy-indan-4-yl]sulfonylacetonitrile] | 5200 nM
14 | NC1CCc2c(Oc3cc(F)cc(F)c3)ccc(S(=O)(=O)C(F)F)c21 (stereo not shown) [Compound 19, 7-((difluoromethyl)sulfonyl)-4-(3,5-difluorophenoxy)-2,3-dihydro-1H-inden-1-amine] | 38000 nM
15 | O=S(=O)(c1ccc(Oc2cc(F)cc(F)c2)c2c1CCC2)C(F)F [Compound 20, 4-((Difluoromethyl)sulfonyl)-7-(3,5-difluorophenoxy)-2,3-dihydro-1H-indene] | 1100 nM
16 | O=S(=O)(c1ccc(Oc2cc(F)cc(F)c2)c2c1C(CO)CC2)C(F)F (stereo not shown) [Compound 24, (7-((Difluoromethyl)sulfonyl)-4-(3,5-difluorophenoxy)-2,3-dihydro-1H-inden-1-yl)methanol] | 920 nM
17 | N#Cc1cc(F)cc(Oc2ccc(S(=O)(=O)C(F)(F)F)c(Cl)c2C#N)c1 [Compound 29, 2-Chloro-6-(3-cyano-5-fluorophenoxy)-3-((trifluoromethyl)sulfonyl)benzonitrile] | 22 nM
18 | Cc1c(S(=O)(=O)C(F)F)ccc(Oc2cc(F)cc(C#N)c2)c1C#N [Compound 33, 6-(3-Cyano-5-fluorophenoxy)-3-((difluoromethyl)sulfonyl)-2-methylbenzonitrile] | 157 nM
19 | Cc1c([S+]([O-])C(F)F)ccc(Oc2cc(F)cc(Cl)c2)c1C#N (stereo not shown) [Compound 37, 6-(3-Chloro-5-fluorophenoxy)-3-((difluoromethyl)sulfinyl)-2-methylbenzonitrile] | 6700 nM
20 | Cc1c(S(C)(=O)=O)ccc(Oc2cc(F)cc(C#N)c2)c1C#N [Compound 51, 6-(3-Cyano-5-fluorophenoxy)-2-methyl-3-(methylsulfonyl)benzonitrile] | 2000 nM
21 | Cc1c(S(C)(=O)=O)ccc(Oc2cc(F)cc(F)c2)c1C#N [Compound 52, 6-(3,5-Difluorophenoxy)-2-methyl-3-(methylsulfonyl)benzonitrile] | 46 nM
22 | N#Cc1ccc(Oc2cc(F)cc(F)c2)c2c1[C@H](O)CC2 [Compound 66, (R)-7-(3,5-Difluorophenoxy)-3-hydroxy-2,3-dihydro-1H-indene-4-carbonitrile] | 5000 nM
23 | CS(=O)(=NC#N)c1ccc(Oc2cc(F)cc(C#N)c2)c2c1C(O)CC2 (stereo not shown) [Compound 68] | 3100 nM
24 | N=S(=O)(c1ccc(Oc2cc(F)cc(Cl)c2)c(Br)c1)C(F)F (stereo not shown) [Compound 69, 2-bromo-1-(3-chloro-5-fluorophenoxy)-4-((difluoromethyl)sulfonimidoyl)benzene] | 1300 nM
25 | CN=S(=O)(c1ccc(Oc2cc(F)cc(Cl)c2)c(Br)c1)C(F)F (stereo not drawn) [Compound 70, N-methyl-2-bromo-1-(3-chloro-5-fluorophenoxy)-4-(S-(difluoromethyl)sulfonimidoyl)benzene] | 770 nM
26 | N=S(=O)(c1ccc(Oc2cc(F)cc(Cl)c2)c(Br)c1)C(F)(F)F (stereo not shown) [Compound 71, 2-bromo-1-(3-chloro-5-fluorophenoxy)-4-((trifluoromethyl)sulfonimidoyl)benzene] | 640 nM
27 | N#Cc1cc(S(=N)(=O)C(F)(F)F)ccc1Oc1cc(F)cc(Cl)c1 (stereo not shown) [Compound 72, 2-(3-chloro-5-fluorophenoxy)-5-((trifluoromethyl)sulfonimidoyl)benzonitrile] | 510 nM
28 | N#Cc1cc(F)cc(Oc2ccc(S(=N)(=O)C(F)(F)F)cc2C#N)c1 (stereo not shown) [Compound 73, 2-(3-cyano-5-fluorophenoxy)-5-((trifluoromethyl)sulfonimidoyl)benzonitrile] | 1400 nM

Next, values leading:

Row | IC50 | Structure (SMILES)
29 | < 5 nM | O=S(=O)(c1ccc(Oc2cc(F)cc(Cl)c2)c2c1C(O)C(F)(F)C2)C(F)F (stereo not shown) [Compound 8, 4-(3-chloro-5-fluoro-phenoxy)-7-(difluoromethylsulfonyl)-2,2-difluoro-indan-1-ol]
30 | 9800 nM | C=CCC1(O)c2c(S(=O)(=O)C(F)F)ccc(Oc3cc(F)cc(F)c3)c2CC1(F)F (stereo not shown) [Compound 12, 1-allyl-7-(difluoromethylsulfonyl)-4-(3,5-difluorophenoxy)-2,2-difluoro-indan-1-ol]
31 | 120 nM | O=C1CCc2c(Oc3cc(F)cc(Cl)c3)ccc(S(=O)(=O)C(F)F)c21 [Compound 18, 4-(3-chloro-5-fluorophenoxy)-7-((difluoromethyl)sulfonyl)-2,3-dihydro-1H-inden-1-one]
32 | 140 nM | O=S(=O)(c1ccc(Oc2cc(F)cc(F)c2)c2c1C=CC2)C(F)F [Compound 21, 4-((Difluoromethyl)sulfonyl)-7-(3,5-difluorophenoxy)-1H-indene]
33 | 49900 nM | N#Cc1c(Oc2cc(F)cc(Cl)c2)ccc(S(=O)(=O)C(F)(F)F)c1Cl [Compound 28, 2-Chloro-6-(3-chloro-5-fluorophenoxy)-3-((trifluoromethyl)sulfonyl)benzonitrile]
34 | 18 nM | Cc1c(S(=O)(=O)C(F)F)ccc(Oc2cc(F)cc(Cl)c2)c1C#N [Compound 32, 6-(3-Chloro-5-fluorophenoxy)-3-((difluoromethyl)sulfonyl)-2-methylbenzonitrile]
35 | < 5 nM | Cc1c(S(=O)(=O)C(F)F)ccc(Oc2cc(F)cc(F)c2)c1C#N [Compound 34, 3-((Difluoromethyl)sulfonyl)-6-(3,5-difluorophenoxy)-2-methylbenzonitrile]
36 | 17000 nM | CN(C)Cc1c(S(=O)(=O)C(F)F)ccc(Oc2cc(F)cc(Cl)c2)c1C#N [Compound 36, 6-(3-Chloro-5-fluorophenoxy)-3-((difluoromethyl)sulfonyl)-2-((dimethylamino)methyl)benzonitrile]
37 | 6100 nM | O=S(=O)(c1ccc(Oc2cc(F)cc(Cl)c2)c(Cl)c1Cn1ccnc1)C(F)F [Compound 45, 1-(2-Chloro-3-(3-chloro-5-fluorophenoxy)-6-((difluoromethyl)sulfonyl)benzyl)-1H-imidazole]
38 | 9000 nM | O=S(=O)(c1ccc(Oc2cc(F)cc(Cl)c2)c(Cl)c1CNCC(F)(F)F)C(F)F [Compound 47, N-(2-Chloro-3-(3-chloro-5-fluorophenoxy)-6-((difluoromethyl)sulfonyl)benzyl)-2,2,2-trifluoroethan-1-amine]
39 | 920 nM | O=S(=O)(c1ccc(Oc2cc(F)cc(Cl)c2)c(Cl)c1CNC1CCOCC1)C(F)F [Compound 48, N-(2-Chloro-3-(3-chloro-5-fluorophenoxy)-6-((difluoromethyl)sulfonyl)benzyl)tetrahydro-2H-pyran-4-amine]
40 | 13000 nM | O=S(=O)(c1ccc(Oc2cc(F)cc(Cl)c2)c(Cl)c1CNC1CCCOC1)C(F)F (stereo not shown) [Compound 49, N-(2-Chloro-3-(3-chloro-5-fluorophenoxy)-6-((difluoromethyl)sulfonyl)benzyl)tetrahydro-2H-pyran-3-amine]
41 | 330 nM | Cc1c(S(C)(=O)=O)ccc(Oc2cc(F)cc(Cl)c2)c1C(F)F [Compound 53, 1-(3-Chloro-5-fluorophenoxy)-2-(difluoromethyl)-3-methyl-4-(methylsulfonyl)benzene]
42 | 240 nM | N=S(=O)(c1ccc(Oc2cc(F)cc(Cl)c2)c(Br)c1Cl)C(F)(F)F (stereo not shown) [Compound 75, (3-bromo-2-chloro-4-(3-chloro-5-fluorophenoxy)phenyl)(imino)(trifluoromethyl)-λ^6-sulfanone]
43 | 880 nM | N#Cc1c(S(=O)(=O)C(F)F)ccc(Oc2cc(F)cc(Cl)c2)c1Br [Compound 76, 2-bromo-3-(3-chloro-5-fluorophenoxy)-6-((difluoromethyl)sulfonyl)benzonitrile]
